Earlier results, collected in patent publication US20090117053A1, “LOCAL DELIVERY OF 5-AMINOLEVULINIC-ACID BASED COMPOUNDS TO TISSUES AND ORGANS FOR DIAGNOSTIC AND THERAPEUTIC PURPOSES” (Boston Scientific Scimed, Inc., priority 2007, published 2009).

Columns and labels:
[1] = comparison between ALA-based compounds
[2] = compared with ALA hydrochloride and various other ALA ester hydrochlorides
protoporphyrin IX (PPIX) = conditions: compared with ALA hydrochloride and various other ALA ester hydrochlorides

Row | Compound | hydrophilicity (relative ranking) [1] | phototoxicity [2] | PPIX levels (protoporphyrin IX (PPIX))
1 | CCOC(=O)CCC(=O)CN.Cl [ALA ethyl ester hydrochloride] | more hydrophilic than ALA n-propyl ester hydrochloride | – | –
2 | Cl.NCC(=O)CCC(=O)O [ALA hydrochloride, 5-aminolevulinic acid hydrochloride] | more hydrophilic than ALA methyl ester hydrochloride | – | –
3 | COC(=O)CCC(=O)CN.Cl [ALA methyl ester hydrochloride] | more hydrophilic than ALA ethyl ester hydrochloride | – | –
4 | Cl.NCC(=O)CCC(=O)OCCC(F)(F)C(F)(F)C(F)(F)C(F)(F)F [ALA nonafluorohexylester hydrochloride] | – | improved phototoxicity | appreciably increased PPIX levels
5 | CCCCCCSC(=O)CCC(=O)CN.Cl [ALA thiohexylester hydrochloride, ALA thiohexyl ester hydrochloride] | – | improved phototoxicity | appreciably increased PPIX levels
6 | ALA dibenzyldiester dihydrochloride | – | improved phototoxicity | appreciably increased PPIX levels
